Measured values reported in US20250296971A1, “GASTRIC INHIBITORY PEPTIDE RECEPTOR LIGANDS” (priority 2021, published 2025).
*1 amine or outer side, *2 acyl side, *3 side chain or, on linkers, in order; H or OH if unused. Where a SMILES comes first, the peptide text is derived from it. Bridges are numbered along the chain shown (N, C = ends). Primed or numbered codes have the meaning given here. [ ]: non-standard residue; d: D form. The star is where a group is joined. X5 = NC(=O)[C@H](CCCCNC(=O)CN1CCN(CC(=O)O)CCN(CC(=O)O)CCN(CC(=O)O)CC1)NC(=O)CCC(=O)NCCCOCCOCCOCCCN*; DOTA(In) = O=C1CN2CCN3CCN(CC(=O)*)CCN(CC2)CC(=O)[O][In]([O]1)[O]C(=O)C3; DOTA = O=C(O)CN1CCN(CC(=O)O)CCN(CC(=O)*)CCN(CC(=O)O)CC1; Trp(5-Cl) = N[C@@H](Cc1c[nH]c2ccc(Cl)cc12)C(=O)O; Phe(3,4-Cl2) = N[C@@H](Cc1ccc(Cl)c(Cl)c1)C(=O)O; Pyridine(2,6-diCH2) = c1cc(C[*:1])nc(C[*:2])c1; Phe(2,4-Cl2) = N[C@@H](Cc1ccc(Cl)cc1Cl)C(=O)O; 2Lut″ = 2,6-lutidylidene linking two thiols; Phe(3-Cl) = N[C@@H](Cc1cccc(Cl)c1)C(=O)O; Phe(4-Cl) = N[C@@H](Cc1ccc(Cl)cc1)C(=O)O; X7 = c1cc(CSCCN[*:2])cc(C[*:1])c1; Hyp = O=C(O)[C@@H]1C[C@@H](O)CN1; X1 = O=C(CN1CCC(N[*:1])CC1)[*:2]; pS = N[C@@H](COP(=O)(O)O)C(=O)O; Suc = O=C(CCC(=O)[*:2])[*:1]; Thp = NC1(C(=O)O)CCOCC1; Aib = CC(C)(N)C(=O)O

T1: GIPR (CHO-K1-hGIPR cells) (Homo sapiens, UniProt P48546)
T1 construct: host or cells: CHO-K1
T1 sequence (P48546 22-466): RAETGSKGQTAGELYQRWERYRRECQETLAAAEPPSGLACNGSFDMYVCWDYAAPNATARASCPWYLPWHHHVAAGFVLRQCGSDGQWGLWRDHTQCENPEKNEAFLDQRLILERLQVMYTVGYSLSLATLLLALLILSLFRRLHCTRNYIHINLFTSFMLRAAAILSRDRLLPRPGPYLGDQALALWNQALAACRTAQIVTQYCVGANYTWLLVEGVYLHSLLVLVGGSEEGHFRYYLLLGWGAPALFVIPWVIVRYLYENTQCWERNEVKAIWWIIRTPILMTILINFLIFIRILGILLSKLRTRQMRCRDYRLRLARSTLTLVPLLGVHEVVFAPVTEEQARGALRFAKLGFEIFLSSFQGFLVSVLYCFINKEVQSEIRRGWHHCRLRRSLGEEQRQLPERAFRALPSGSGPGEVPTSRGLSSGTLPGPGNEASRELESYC

T2: human GIP receptor (bioGIPR) (Homo sapiens, UniProt P48546)
T2 construct: Biotinylate extracellular of the human GIP receptor (bioGIPR, Proteros biostructures GmbH, lot #02/2b); purchased Proteros biostructures GmbH lot #02/2b
T2 sequence (P48546 22-138 limits assumed): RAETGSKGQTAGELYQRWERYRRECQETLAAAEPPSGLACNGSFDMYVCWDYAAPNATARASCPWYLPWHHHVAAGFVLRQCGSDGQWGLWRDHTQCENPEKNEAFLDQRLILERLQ

B1: Ac-Asp-Mcf-5Clw-Hyp-Glu-leu-[Cys(2Lut)-Thp-Leu-Ile-Cys]-NH2 (peptide)
peptide: Ac-D[Phe(3-Cl)][Trp(5-Cl)][Hyp]E[dL]C[Thp]LIC-NH2
modifications: linker 7-11 via Pyridine(2,6-diCH2)
SMILES: CC[C@H](C)[C@@H]1NC(=O)[C@H](CC(C)C)NC(=O)C2(CCOCC2)NC(=O)[C@@H](NC(=O)[C@@H](CC(C)C)NC(=O)[C@H](CCC(=O)O)NC(=O)[C@@H]2C[C@@H](O)CN2C(=O)[C@H](Cc2c[nH]c3ccc(Cl)cc23)NC(=O)[C@H](Cc2cccc(Cl)c2)NC(=O)[C@H](CC(=O)O)NC(C)=O)CSCc2cccc(n2)CSC[C@@H](C(N)=O)NC1=O
B2: Ac-Asp-Eaa-5Clw-Hyp-Glu-leu-[Cys(2Lut)-Thp-Leu-Ile-Cys]-NH2 (peptide)
peptide: Ac-D[Phe(3,4-Cl2)][Trp(5-Cl)][Hyp]E[dL]C[Thp]LIC-NH2
modifications: linker 7-11 via Pyridine(2,6-diCH2)
SMILES: CC[C@H](C)[C@@H]1NC(=O)[C@H](CC(C)C)NC(=O)C2(CCOCC2)NC(=O)[C@@H](NC(=O)[C@@H](CC(C)C)NC(=O)[C@H](CCC(=O)O)NC(=O)[C@@H]2C[C@@H](O)CN2C(=O)[C@H](Cc2c[nH]c3ccc(Cl)cc23)NC(=O)[C@H](Cc2ccc(Cl)c(Cl)c2)NC(=O)[C@H](CC(=O)O)NC(C)=O)CSCc2cccc(n2)CSC[C@@H](C(N)=O)NC1=O
B3: Ac-Asp-Egm-5Clw-Hyp-Glu-leu-[Cys(2Lut)-Thp-Leu-Ile-Cys]-NH2 (peptide)
peptide: Ac-D[Phe(2,4-Cl2)][Trp(5-Cl)][Hyp]E[dL]C[Thp]LIC-NH2
modifications: linker 7-11 via Pyridine(2,6-diCH2)
SMILES: CC[C@H](C)[C@@H]1NC(=O)[C@H](CC(C)C)NC(=O)C2(CCOCC2)NC(=O)[C@@H](NC(=O)[C@@H](CC(C)C)NC(=O)[C@H](CCC(=O)O)NC(=O)[C@@H]2C[C@@H](O)CN2C(=O)[C@H](Cc2c[nH]c3ccc(Cl)cc23)NC(=O)[C@H](Cc2ccc(Cl)cc2Cl)NC(=O)[C@H](CC(=O)O)NC(C)=O)CSCc2cccc(n2)CSC[C@@H](C(N)=O)NC1=O

Assays:
[1] = molecular target: T1, GIPR (CHO-K1-hGIPR cells); experiment: FACS binding assay; conditions: competition with 20 nM GIP-057, 4° C., 1 hour, read-out: pIC50 Category (converted)
Outline: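 Read-out: flow cytometric median fluorescence intensity, APC/Cy5 channel, plotted vs peptide conc.; 4PL fit → EC50/pEC50 or IC50/pIC50. Cells: CHO-K1-hGIPR, Accutase-detached, 500.000/mL in PBS + 1% FCS. Detection: APC-streptavidin 1 μg/mL, 30 min, on ice.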

[2] = molecular target: T2, human GIP receptor (bioGIPR); experiment: Surface plasmon resonance (SPR) based binding assay; conditions: Single Cycle Kinetic mode, 25° C.; for Kd: SPR, 1:1 Langmuir binding model, read-out: pKD Category (converted); for t1/2 Category: SPR dissociation half-life
Outline: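 Binding was measured at 25 °C by single-cycle kinetics against a reference flow cell, with blank-run and drift correction, after capturing biotinylated GIPR extracellular domain to ~3500 RU. Running buffer: HBST, 0.1% DMSO. A 1:1 Langmuir model gave kinetic rates, KD, t1/2 and pKD.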

[3] = molecular target: human Gastric Inhibitory Peptide Receptor (GIPR) (human) (UniProt P48546); experiment: FACS competition vs biotinylated GIP-057 on CHO-K1-hGIPR cells; category A: pIC50 >8.0

| Molecule | IC50 [1] [nM] | Kd [2] [nM] | t1/2 Category [2] | pIC50 [3] [pic50] |
| --- | --- | --- | --- | --- |
| CC[C@H](C)[C@@H]1NC(=O)[C@H](CC(C)C)NC(=O)C(C)(C)NC(=O)[C@@H](NC(=O)[C@@H](CC(C)C)NC(=O)[C@H](CCC(=O)O)NC(=O)[C@@H]2CCCN2C(=O)[C@H](Cc2c[nH]c3ccc(Cl)cc23)NC(=O)[C@H](Cc2c[nH]c3ccccc23)NC(=O)[C@H](CC(=O)O)NC(=O)CN2CCC(NC(=O)CN3CCN4CCN5CCN(CC3)CC(=O)[O][In]([O]C(=O)C4)[O]C(=O)C5)CC2)CSCc2cccc(c2)CSCCNC1=O [GIP-153, InDOTA-APAc-Asp-Trp-5Clw-Pro-Glu-leu-[Cys(3MeBn)-Aib-Leu-Ile-AET]] ({DOTA(In)}-[X1]DW[Trp(5-Cl)]PE[dL]C[Aib]LI; linker 8-C via X7) | < 10 | < 1 | – | – |
| CC[C@H](C)[C@@H]1NC(=O)[C@H](CC(C)C)NC(=O)C2(CCNCC2)NC(=O)[C@@H](NC(=O)[C@@H](CC(C)C)NC(=O)[C@H](CCC(=O)O)NC(=O)[C@@H]2C[C@@H](N)CN2C(=O)[C@H](Cc2c[nH]c3ccc(Cl)cc23)NC(=O)[C@H](Cc2c[nH]c3ccccc23)NC(=O)[C@H](CC(=O)O)NC(=O)CCC(=O)NCCCOCCOCCOCCCNC(=O)CN2CCN(CC(=O)O)CCN(CC(=O)O)CCN(CC(=O)O)CC2)CNCc2cccc(n2)CSCCNC1=O [GIP-113, DOTA-Ttds-Asp-Trp-5Clw-Tap-Glu-leu-[Dap(2Lut)-Apc-Leu-Ile-AET]] | < 10 | < 1 | A (t1/2 values>15 min) | – |
| CC[C@H](C)[C@@H]1NC(=O)[C@H](CC(C)C)NC(=O)C2(CCOCC2)NC(=O)[C@@H](NC(=O)[C@@H](CC(C)C)NC(=O)[C@H](CCC(=O)O)NC(=O)[C@@H]2C[C@@H](O)CN2C(=O)[C@H](Cc2c[nH]c3ccc(Cl)cc23)NC(=O)[C@H](Cc2c[nH]c3ccccc23)NC(=O)CCC(=O)O)CSCc2cccc(n2)CSC[C@@H](C(=O)NCCCOCCOCCOCCCNC(=O)CCC(=O)N[C@@H](CCCCNC(=O)CN2CCN(CC(=O)O)CCN(CC(=O)O)CCN(CC(=O)O)CC2)C(N)=O)NC1=O [GIP-108, HO-Succinyl-Trp-5Clw-Hyp-Glu-leu-[Cys(2Lut)-Thp-Leu-Ile-Cys]-Ttds-Lys(DOTA)-NH2] (Suc-W[Trp(5-Cl)][Hyp]E[dL]C[Thp]LIC-X5; linker 6-10 via Pyridine(2,6-diCH2)) | < 10 | < 1 | A (t1/2 values>15 min) | – |
| CC[C@H](C)[C@@H]1NC(=O)[C@H](CC(C)C)NC(=O)C2(CCOCC2)NC(=O)[C@@H](NC(=O)[C@@H](CC(C)C)NC(=O)[C@H](CCC(=O)O)NC(=O)[C@@H]2C[C@@H](O)CN2C(=O)[C@H](Cc2c[nH]c3ccc(Cl)cc23)NC(=O)[C@H](Cc2c[nH]c3ccccc23)NC(=O)CCC(=O)O)CSCc2cccc(n2)CSC[C@@H](C(=O)NC2CCN(CC(=O)N[C@@H](CCCCNC(=O)CN3CCN(CC(=O)O)CCN(CC(=O)O)CCN(CC(=O)O)CC3)C(N)=O)CC2)NC1=O [GIP-109, HO-Succinyl-Trp-5Clw-Hyp-Glu-leu-[Cys(2Lut)-Thp-Leu-Ile-Cys]-APAc-Lys(DOTA)-NH2] (Suc-W[Trp(5-Cl)][Hyp]E[dL]C[Thp]LIC[X1]K(DOTA)-NH2; linker 6-10 via Pyridine(2,6-diCH2)) | < 10 | < 1 | A (t1/2 values>15 min) | – |
| Ac-DW[Trp(5-Cl)][Hyp][pS][dL]C[Thp]LIC-NH2 (linker 7-11 via Pyridine(2,6-diCH2)) [Ac-Asp-Trp-5Clw-Hyp-Pse-leu-[Cys(2Lut)-Thp-Leu-Ile-Cys]-NH2] | – | – | – | > 8 |
| B1 | – | – | – | > 8 |
| Ac-D[Phe(4-Cl)][Trp(5-Cl)][Hyp]E[dL]C[Thp]LIC-NH2 (linker 7-11 via Pyridine(2,6-diCH2)) [Ac-Asp-Pcf-5Clw-Hyp-Glu-leu-[Cys(2Lut)-Thp-Leu-Ile-Cys]-NH2] | – | – | – | > 8 |
| B2 | – | – | – | > 8 |
| B3 | – | – | – | > 8 |
| Ac-DW[Phe(3,4-Cl2)][Hyp]E[dL]C[Thp]LIC-NH2 (linker 7-11 via 2Lut″) [Ac-Asp-Trp-Eaa-Hyp-Glu-leu-[Cys(2Lut)-Thp-Leu-Ile-Cys]-NH2] | – | – | – | > 8 |
